Patent US20220211914A1, “HYALURONIC ACID HYDROGELS WITH PROLONGED ANTIMICROBIAL ACTIVITY” (INSTITUT NATIONAL DE LA SANTE ET DE LA RECHERCHE MEDICALE …, priority 2019, published 2022)
Entries after “also recorded” stand apart in the source; their conditions may differ.

Tests used:
S. aureus = test: Antibacterial activity of PAR-loaded HA films, S. aureus culture, OD at 620 nm after 24 h; format: cell-based; details: loaded into HA hydrogels at 1 mg/mL; preliminary experiments
Experimental: FIG. 3: Bacterial growth on PAR pre-loaded and post-loaded HA films. Bacterial growth was evaluated after 24 h by optical density (OD) measurement at 620 nm. PARO corresponds to HA film without PAR. HA 2.5%+BDDE 20% films were added with 1 mg/mL PAR after cross-linking (=post-loaded films).
They assessed post-loading of PAR (adding 1 mg/mL solution of PAR onto cross-linked HA films). […] We also followed PAR release after 24 h from post-loaded films.
After 24 h, OD at 620 nm was measured and bacterial viability on the surfaces was assessed using BacLight Redox Sensor CTC Vitality kit (Molecular Probes) as a fluorescent marker.

bacteria = test: Repetitive culture of bacteria with PAR-loaded HA hydrogel discs (fresh bacteria every 24 h); format: cell-based; details: for duration of antibacterial effect in repetitive culture, additional test: additional test (FIG. 15); for lowest loading concentration showing antibacterial effect: loaded HA hydrogels
Experimental: Repetitive culture: after 24 h of bacterial culture, the samples were rinsed and seeded with fresh bacteria.
After 24 h of bacterial culture, the samples were rinsed and seeded with fresh bacteria.
Every 24 h of bacterial culture, the samples were seeded with fresh bacteria.

Balb/3T3 cells = test: Direct in vitro cytotoxicity test (ISO 10993) with MTT test; details: 24 h
Experimental: FIG. 14: Cell viability evaluation by MTT test. Balb/3T3 cells were seeded in 24-well plate and put in contact with HA hydrogel discs loaded or not with PARs for 24 h. HA discs correspond to BDDE-crosslinked HA hydrogel discs without PAR, and HA+PARs correspond to HA hydrogels loaded with different PAR concentrations (mg/mL). (A) Cell images after 24 h of direct in vitro cytotoxicity test. (B) Cell viability measured by MTT test. Dashed line corresponds to 70% viability (cytotoxicity limit).
Direct in vitro cytotoxicity test consists in putting material in contact with the cells for 24 h and performing MTT test to evaluate cell viability. According to ISO 10993, the tested material should cover approximately 1/10 of cell layer surface, which corresponds to ˜5 mm hydrogel discs per well of a 24-well plate.
After 24 h at 37° C., hydrogel discs were removed and MTT test was performed in order to measure cell metabolic activity, which often serves to estimate cell viability. […] The number of viable cells correlates to the colour intensity determined by photometric measurements after dissolving the formazan in alcohol (from ISO 10993).
So the discs, loaded or not with PAR, were sterilized and placed onto ˜80% confluent layer of Balb/3T3 cells. For MTT assay, the cells were incubated for 2 h in 0.2 mg/mL MTT-containing cell culture medium. The medium was then removed and formazan was dissolved in DMSO. Absorbance of resulting solutions was measured at 570 nm using spectrophotometer and images were taken around and under the discs to evaluate cell morphology.

[1] = PAR-FITC release from HA hydrogel discs in NaCl 1 M (confocal microscopy, spectrofluorimetry); details: for release according to the confocal microscopy images: 72 h at 37° C. in NaCl 1M, discs loaded with 0.5 mg/mL PAR-FITC; for released PAR (from percentage remaining, image processing): 72 h in NaCl 1 M, 100% = fluorescence intensity before release; for PAR concentration contained in the discs: disc volume approximately 30 μL, loaded in 0.5 mg·mL^−1
Experimental: FIGS. 20-24: Release of PARs in NaCl and in culture media. HA discs were incubated with 0.5 mg·mL^−1 of three different FITC-conjugated PAR for 24 h. The discs were rinsed, then incubated for 72 h in NaCl 1 M, MH or DMEM.
More specifically, total amounts of PAR contained in the hydrogels were estimated by incubation of hydrogels loaded with fluorescently labelled PAR in concentrated NaCl to promote PAR release. […] The percentage of PAR remaining in the hydrogel discs after 72 h of incubation was measured with image processing; 100% corresponds to fluorescence intensity before release. […] Then, amounts of PAR-FITC released were quantified by measuring fluorescence intensity of the supernatant by spectrofluorimetry and referring to a calibration curve.

[2] = PAR-loaded hydrogel stability in Tris/NaCl buffer; format: physicochemical; details: 48 h at room temperature or at 37° C.
[3] = Loading of PAR-FITC into HA hydrogel discs (CLSM images, fluorescence profiles); format: physicochemical; details: for distribution in hydrogel discs (fluorescent profiles): discs loaded with 0.5 mg/mL PAR-FITC
Experimental: FIG. 6: Loading of PAR30-FITC into HA hydrogel discs at different concentrations for 3 h and 24 h. (A) CLSM images (B) Quantification of PAR concentration in the center of the discs.
FIG. 7: Loading of PARs-FITC into HA hydrogel discs. CSLM images of HA hydrogel discs loaded with 0.5 mg/mL of three PARs labelled with FITC (on the left) and fluorescence profiles of the resulting discs (on the right).
To load PAR into the hydrogels, the discs were immersed in PAR solution and incubated at room temperature. For 4 mm discs in 24-well plate, 0.5 mL of PAR solution was used. Then the discs were rinsed with Tris/NaCl buffer two times: one short and one long (at least 1 hour) rinsing.
To visualize PAR loading and diffusion inside the hydrogels, they again used fluorescently-labelled PARs (PAR10-FITC, PAR30-FITC, PAR200-FITC).

[4] = PAR-FITC release from HA hydrogels in MH and DMEM culture media; details: for release in DMEM/FBS relative to MH: 24 h of incubation at 37° C.; for release rate in MH: followed during 72 hours at 37° C. in MH
Experimental: Using FITC-labeled PARs of 10 units, 30 units and 200, the inventors evaluated their release at 37° C. from HA hydrogels in two different media.
They performed discs imaging after 24 h of incubation at 37° C. in MH (Mueller Hinton broth, bacterial culture medium) and in DMEM (Dulbecco's modified Eagle's medium+10% FBS+antibiotics, cell culture medium).
More specifically, PAR release from the hydrogels was followed during 72 hours in microbiological growth medium (MH) or cell culture medium (DMEM). PAR-FITC loaded hydrogels were placed into these media and incubated at 37° C., and PAR release was observed by confocal microscopy (FIG. 22).

[5] = PAR mobility inside HA hydrogels by FRAP; format: physicochemical; details: discs loaded with 0.5 mg/mL FITC-conjugated PAR for 24 h
Experimental: FIG. 8: PAR mobility inside HA hydrogels. HA discs were loaded with 0.5 mg/mL of three different FITC-conjugated PARs for 24 h and rinsed. Then, FRAP experiments were conducted. (A) Comparison of the fluorescence recovery of three PARs. (B) Determination of the diffusion coefficients D and percentage of mobile molecules p for three PARs.
Next, the inventors studied PARs mobility inside the hydrogels (FIG. 8) using FRAP (fluorescence recovery after photobleaching) technique. […] Quantitative parameters such as diffusion coefficient were also determined (FIG. 8B).

[6] = 0.1 mg/mL-loaded hydrogels, fresh bacteria added every day
[7] = HA hydrogel discs loaded at 1 mg/mL
[8] = hydrogels loaded with 0.05 mg/mL

| Substance | antibacterial activity (S. aureus) | duration of antibacterial effect in repetitive culture, additional test (bacteria; 0.1 mg/mL-loaded hydrogels) | duration of antibacterial effect in repetitive culture (bacteria; [6]) | duration of antibacterial effect in repetitive culture (bacteria; HA hydrogel discs loaded at 0.5 mg/mL) | duration of antibacterial effect in repetitive culture (bacteria; [7]) | comparison of prolonged antibacterial effect among PAR lengths (bacteria; PAR10, PAR30, PAR200 loaded HA hydrogels, repetitive culture) | lowest loading concentration showing antibacterial effect (bacteria) | cell viability by MTT test (Balb/3T3 cells; 0.1 mg/mL-loaded hydrogels) | cell viability by MTT test (Balb/3T3 cells; [8]) | release according to the confocal microscopy images [1] | released PAR (from percentage remaining, image processing) [1] | PAR concentration contained in the discs [1] | PAR-FITC release in Tris/NaCl buffer [2] | diffusion into the disc center, 24 h vs. 3 h loading ([3]; PAR30-FITC loading for 3 h vs. 24 h) | distribution in hydrogel discs (fluorescent profiles) [3] | release in DMEM/FBS relative to MH [4] | release rate in MH [4] | mobility inside the hydrogels (qualitative, FRAP) [5] |
| --- | --- | --- | --- | --- | --- | --- | --- | --- | --- | --- | --- | --- | --- | --- | --- | --- | --- | --- |
| poly-L-arginine [PAR30] | antibacterial activity | 5 days | 4 days | 8 days | 8 days | most prolonged antibacterial effect; also recorded: most efficient | 0.05 mg/mL | good | good viability | ~80% | ~78% | ~6.7 mg/mL | no PAR-FITC release | diffused more into the discs center | more homogeneous distribution | higher than in MH | released more gradually | – |
| poly-L-arginine [PAR10] | antibacterial activity | 3 days | 2 days | – | 8 days | – | 0.05 mg/mL | good | good viability | almost complete | about 97% | about 7.3 mg·mL^−1 | no PAR-FITC release | – | more homogeneous distribution | – | faster | most mobile |
| poly-L-arginine [PAR200] | antibacterial activity | – | – | – | 7 days | – | – | – | – | ~80% | ~78% | ~3.9 mg/mL | no PAR-FITC release | – | – | higher than in MH | released more gradually | least mobile |
